Where a name gives a salt, the structure may show the parent alone.

For this test, the target named is human D3 receptor (Homo sapiens, UniProt P35462). Put plainly: Cytosensor Microphysiometer functional activity, antagonist mode against quinpirole (hD3-CHO cells). In kind it is cell-based. To be noted: against 30 nM quinpirole, acidification rate, read-out: pKb values at the human D3 receptor (tested as antagonists) (converted).
human D3 receptor, sequence (P35462 whole entry): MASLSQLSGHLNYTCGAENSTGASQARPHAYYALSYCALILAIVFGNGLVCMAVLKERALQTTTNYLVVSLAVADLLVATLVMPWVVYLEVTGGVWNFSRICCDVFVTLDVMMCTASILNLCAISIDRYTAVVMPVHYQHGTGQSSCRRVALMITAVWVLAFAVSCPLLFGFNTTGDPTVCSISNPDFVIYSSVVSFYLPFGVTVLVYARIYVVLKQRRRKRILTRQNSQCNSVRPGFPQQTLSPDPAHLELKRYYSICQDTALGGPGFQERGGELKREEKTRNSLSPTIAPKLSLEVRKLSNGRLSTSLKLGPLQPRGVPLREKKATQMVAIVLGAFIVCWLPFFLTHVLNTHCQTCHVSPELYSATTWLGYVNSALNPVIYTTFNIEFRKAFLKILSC

As to `CCCN(CCCCNC(=O)c1ccc(-c2ccccc2)cc1)C1CCc2ccc(CC(=O)OCC)cc2C1` (racemic) [Example 3dd, N-(4-(4-Phenylbenzoylamino)butyl)-7-(R,S)-propylamino-5,6,7,8-tetrahydronaphthalene-2-acetic acid, ethyl ester, hydrochloride], the Kb is 0.0316 to 10 nM.

Regarding `CCCN(CCCCNC(=O)c1ccc(-c2ccccc2)cc1)C1CCc2c(CC(=O)OCC)cccc2C1` (racemic) [Example 3bb, N-(4-(4-Phenylbenzoylamino)butyl)-6-(R,S)-propylamino-5,6,7,8-tetrahydronaphthalene-1-acetic acid, ethyl ester, hydrochloride], the Kb is 0.0316 to 10 nM.

`CCCN(CCCCNC(=O)c1ccc(-c2ccccc2)cc1)C1CCc2c(Cl)cccc2C1` (racemic) [Example 2k, 5-Chloro-N-(4-(4-phenylbenzoylamino)butyl)-2-(R,S)-propylamino-1,2,3,4-tetrahydronaphthalene, hydrochloride]: the Kb is 0.0316 to 10 nM.

On to `CCCN(CCCCNC(=O)c1ccc(-c2ccccc2)cc1)C1CCc2cc(CC(=O)OCC)ccc2C1` (racemic) [Example 3cc, N-(4-(4-Phenylbenzoylamino)butyl)-6-(R,S)-propylamino-5,6,7,8-tetrahydronaphthalene-2-acetic acid, ethyl ester, hydrochloride], for which the Kb is 0.0316 to 10 nM.

Consider `CCCN(CCCCNC(=O)c1ccc(-c2ccccc2)cc1)C1CCc2ccc(Cl)cc2C1` (racemic) [Example 2m, 7-Chloro-N-(4-(4-phenylbenzoylamino)butyl)-2-(R,S)-propylamino-1,2,3,4-tetrahydronaphthalene, hydrochloride], for which the Kb was 0.0316 to 10 nM.

Turning to `CCCN(CCCCNC(=O)c1ccc(-c2ccccc2)cc1)C1CCc2cc(OC(F)(F)F)ccc2C1` (racemic) [Example 2x, N-(4-(4-Phenylbenzoylamino)butyl)-2-(R,S)-propylamino-6-trifluoromethoxy-1,2,3,4-tetrahydronaphthalene, hydrochloride], the Kb is 0.0316 to 10 nM.

As to `CCCN(CCCCNC(=O)c1ccc(-c2ccccc2)cc1)C1CCc2c(cccc2OS(=O)(=O)C(F)(F)F)C1` (racemic) [Example 15, N-(4-(4-Phenylbenzoylamino)butyl)-2-(R,S)-propylamino-5-trifluoromethanesulfonyloxy-1,2,3,4-tetrahydronaphthalene, hydrochloride], the Kb is 0.0316 to 10 nM.

As to `CCCN(CCCCNC(=O)c1ccc(-c2ccccc2)cc1)C1CCc2ccccc2C1` (racemic) [Example 10f, N-(4-(4-phenylbenzoylamino)butyl)-2-(R,S)-propylamino-1,2,3,4-tetrahydronaphthalene, hydrochloride], the Kb was 0.0316 to 10 nM.

On to `CCCN(CCCCNC(=O)c1ccc(-c2ccccc2)cc1)C1Cc2ccccc2C1` [Example 2p, N-(4-(4-Phenylbenzoylamino)butyl)-2-propylaminoindane, hydrochloride], for which the Kb is 0.0316 to 10 nM.

Turning to `CCCN(CCCCNC(=O)c1ccc(-c2ccccc2)cc1)C1CCc2c(cccc2OS(C)(=O)=O)C1` (racemic) [Example 17, 5-Methanesulfonyloxy-N-(4-(4-phenylbenzoylamino)butyl)-2-(R,S)-propylamino-1,2,3,4-tetrahydronaphthalene, hydrochloride], the Kb is 0.0316 to 10 nM.

Values taken from patent US6008219A, “Bicyclic amine derivatives and their use as anti-psychotic agents” (SmithKline Beech p.l.c., priority 1995, dated 1999).
